Measurements reported in paper PMC9817077, “Simple, Reliable Protocol for High-Yield Solubilization of Seedless Amyloid-β Monomer” (ACS Chemical Neuroscience, 2022).

Legend:
[1] = Re-freezing of thawed aliquots (AF4-MALS and ThT); assay type: physicochemical; conditions: 50 mM NaOH, 5 min sonication; re-frozen in liquid N2, on pre-cooled metal or in a rack at −80 °C
Method: 174 S6 Re-freezing of Aβ solubilized in 50 mM NaOH
177 used on multiple separate occasions. Aliquots that had been prepared by sonication for 5 min 178 in 50 mM NaOH were thawed and then re-frozen according to one of three methods: rapid 179 freezing by immersion in liquid N2 (freezing time < 1 s); freezing by placing the Eppendorf 180 tube in contact with pre-cooled metal at -80 °C (< 1 min); and simply placing the sample 181 in a rack in the -80 °C freezer (< 5 min). While the former was obviously preferable, the 182 other two methods were tested due to their convenience, and to ascertain whether improper […]
185 indistinguishable the results obtained with ﬁrst-use aliquots (Figures 3-4 in the main text), […]
Therefore, Aβ(1-42) aliquots
187 […] 188 convenient when performing a range of experiments requiring diﬀerent quantities of peptide.
190 temperature is -80 °C, use of liquid N2 is still recommended whenever possible.
The corresponding LS 90o signal. (c) The normalized ThT self-assembly kinetics. All panels use the same color scheme, which encodes the re-freezing method: red, placement in a rack in the -80 °C freezer; green, freezing by placement in contact with pre-cooled metal at -80 °C; blue, rapid freezing by immersion in liquid N2.
(1 picture or pasted object on this page, not shown here)

[2] = Thioflavin T (ThT) self-assembly (fibrillization) kinetics assay; assay type: physicochemical
Method: Peptide was prepared using either of the aforementioned protocols, with or without HFIP pretreatment, and self-assembly was initiated by rapid dilution into the fibrillization buffer to a final concentration of 1–10 μM peptide. […] The success of this strategy was confirmed empirically.
Self-assembly experiments were carried out in a 20 mM sodium phosphate buffer (pH 8) containing 200 μM EDTA, 1 mM NaN3, and 20 μM ThT. […] Correction can be carried out before or after this addition. However, if correction is carried out after the peptide has been added to the buffer stock, the peptide will already have begun to aggregate so that the delay could influence the results. In addition, adding acid to lower the pH would modify the buffer composition and increase the ionic strength from its intended value. As a better alternative, one can correct the pH in advance, by preparing a buffer stock that is more acidic than the final intended solution but reliably reaches the correct pH following the addition of a known quantity of NaOH and Aβ(1-42). Note that this correction is only necessary when preparing Aβ(1-42) solutions by direct addition of the peptide from NaOH stock and is not necessary when exchanging the peptide into the correct buffer by SEC.
The ratio of NaH2PO4 and Na2HPO4 in the 5× buffer stock was chosen to give the correct pH when mixed with the NaOH and other buffer constituents, and was initially based on calculation and subsequently optimized experimentally. The final intended quantities of H2PO4^– and HPO4^2– can be calculated from the Henderson-Hasselbalch eq.[97] Given an acid dissociation constant K2 ≈ 6.94 at the ionic strength of the self-assembly buffer,[98] one expects the final self-assembly buffer to contain approximately 1.6 mM H2PO4^– and 18.4 mM HPO4^2–. When NaOH is added to phosphate buffer, most of the hydroxide is consumed in the reaction OH^– + H2PO4^– → H2O + HPO4^2–. Therefore, if 10 mM NaOH is incorporated into the final buffer at 10% of the final volume, 1 mM H2PO4^– will be converted to 1 mM HPO4^2–. Thus, to achieve the correct final ratio of phosphate ions, the 5× buffer stock will need to contain 5 × (1.6 + 1.0) mM = 13 mM NaH2PO4 and 5 × (18.4 – 1.0) mM = 87 mM Na2HPO4. Similarly, if 50 mM NaOH is used, the 5× buffer stock will need to contain 5 × (1.6 + 5.0) mM = 33 mM NaH2PO4 and 5 × (18.4 – 5.0) mM = 67 mM Na2HPO4. In practice, these calculations were used to inform preparation of a test buffer stock, which was then used to prepare a test self-assembly buffer using the ratios described above. If the pH of this test solution was outside the 7.98–8.02 range, a new test buffer stock was prepared with a modified composition. […]

Question: Which “AF4-MALS elugrams and ThT kinetics of re-frozen peptide against first-use aliquots” value [1] does the source give for “Aβ(1-42): Ultrapure recombinant Aβ(1-42) purchased from rPeptide, lyophilized from HFIP; disordered amyloid-forming peptide” here?
Answer: indistinguishable

Question: What about the “initial ThT fluorescence” value ([2]; 50 mM NaOH samples, 4 μM peptide, 20 mM sodium phosphate pH 8, 37 °C, mean) of the same substance?
Answer: 2.2 % of final fluorescence

Question: What about the “fibrillization half-time τhalf” value ([2]; commercial recombinant samples solubilized in 50 mM NaOH, 20 mM sodium phosphate pH 8, 37 °C, concentration not given) of the same substance?
Answer: 7700 ± 380 s

Question: And the “scaling exponent γ” value ([2]; commercial recombinant, 5 min sonication in 50 mM NaOH (sample 50-5-N-13), fit of mean half-times 1.5–4.0 μM, 20 mM sodium phosphate pH 8, 37 °C)?
Answer: −1.32

Question: What about the “scaling exponent γ (slope of half-time vs Aβ(1-42) concentration, double-logarithmic)” value ([2]; re-solubilized in 10 mM NaOH with or without HFIP pretreatment, 1–5 μM peptide, 20 mM sodium phosphate pH 8.0, 200 μM EDTA, 1 mM NaN3, 20 μM ThT, 37 °C, average, SD 0.24 across 9 peptide samples) of the same substance?
Answer: −1.04
